Measured values published in US11236087B2, “Highly active pyrazolo-piperidine substituted indole-2-carboxamides active against the hepatitis B virus (HBV)” (AiCuris GmbH & Co. KG, priority 2017, dated 2022).

Tests used:
HBV core protein = target: T1, HBV core protein (UniProt P03146); test: Biochemical capsid assembly assay (fluorescence quenching); parameters: species or system hepatitis B virus; settings: read-out: Assembly Activity (IC50); BODIPY-FL labelled core protein, 300 μM NaCl, read 6 min after start
T1 construct: fused on or other part: BODIPY-FL maleimide label on the C-terminal Cys150
Experimental: Biochemical Capsid Assembly Assay
The screening for assembly effector activity was done based on a fluorescence quenching assay published by Zlotnick et al. (2007). The C-terminal truncated core protein containing 149 amino acids of the N-terminal assembly domain fused to a unique cysteine residue at position 150 and was expressed in E. coli using the pET expression system (Merck Chemicals, Darmstadt). Purification of core dimer protein was performed using a sequence of size exclusion chromatography steps. In brief, the cell pellet from 1 L BL21 (DE3) Rosetta2 culture expressing the coding sequence of core protein cloned NdeI/XhoI into expression plasmid pET21b was treated for 1 h on ice with a native lysis buffer (Qproteome Bacterial Protein Prep Kit; Qiagen, Hilden). After a centrifugation step the supernatant was precipitated during 2 h stirring on ice with 0.23 g/ml of solid ammonium sulfate. Following further centrifugation the resulting pellet was resolved in buffer A (100 mM Tris, pH 7.5; 100 mM NaCl; 2 mM DTT) and was subsequently loaded onto a buffer A equilibrated CaptoCore 700 column (GE HealthCare, Frankfurt). The column flow through containing the assembled HBV capsid was dialyzed against buffer N (50 mM NaHCO3 pH 9.6; 5 mM DTT) before urea was added to a final concentration of 3M to dissociate the capsid into core dimers for 1.5 h on ice. The protein solution was then loaded onto a 1 L Sephacryl S300 column. After elution with buffer N core dimer containing fractions were identified by SDS-PAGE and subsequently pooled and dialyzed against 50 mM HEPES pH 7.5; […]. To improve the assembly capacity of the purified core dimers a second round of assembly and disassembly starting with the addition of 5 M NaCl and including the size exclusion chromatography steps described above was performed. From the last chromatography step core dimer containing fractions were pooled and stored in aliquots at concentrations between 1.5 to 2.0 mg/ml at −80° C.
Immediately before labelling the core protein was reduced by adding freshly prepared DTT in a final concentration of 20 mM. After 40 min incubation on ice storage buffer and DTT was removed using a Sephadex G-25 column (GE HealthCare, Frankfurt) and 50 mM HEPES, pH 7.5. For labelling 1.6 mg/ml core protein was incubated at 4° C. and darkness overnight with BODIPY-FL maleimide (Invitrogen, Karlsruhe) in a final concentration of 1 mM. After labelling the free dye was removed by an additional desalting step using a Sephadex G-25 column. Labelled core dimers were stored in aliquots at 4° C. In the dimeric state the fluorescence signal of the labelled core protein is high and is quenched during the assembly of the core dimers to high molecular capsid structures. The screening assay was performed in black 384 well microtiter plates in a total assay volume of 10 μl using 50 mM HEPES pH 7.5 and 1.0 to 2.0 μM labelled core protein. Each screening compound was added in 8 different concentrations using a 0.5 log-unit serial dilution starting at a final concentration of 100 μM, 31.6 μM or 10 μM, In any case the DMSO concentration over the entire microtiter plate was 0.5%. The assembly reaction was started by the injection of NaCl to a final concentration of […] which induces the assembly process to approximately 25% of the maximal quenched signal. 6 min after starting the reaction the fluorescence signal was measured using a Clariostar plate reader (BMG Labtech, Ortenberg) with an excitation of 477 nm and an emission of 525 nm. As 100% and 0% assembly control HEPES buffer containing 2.5 M and 0 M NaCl was used. Experiments were performed thrice in triplicates. EC50 values were calculated by non-linear regression analysis using the Graph Pad Prism 6 software (GraphPad Software, La Jolla, USA).

HBV = test: Determination of HBV DNA from the supernatants of HepAD38 cells (anti-HBV activity); assay type: cell-based, hepatitis B virus; settings: Hepatitis B virus, 144 h; HBV DNA in HepAD38 supernatant, day 6, qPCR; read-out: Cell Activity (EC50)
Procedure, shortened: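 HepAD38 cells, tetracycline withdrawn to induce HBV, treated with serial half-log compound dilutions; on day 6 HBV DNA purified from filtered supernatant and quantified by real-time PCR against HBV plasmid standards; EC50 from relative copy numbers by non-linear regression, three experiments in triplicate.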

[1] = Cell viability assay (AlamarBlue) in HepAD38 cells; settings: human

T1 sequence (P03146 whole entry, looked up, the tested form may be a part): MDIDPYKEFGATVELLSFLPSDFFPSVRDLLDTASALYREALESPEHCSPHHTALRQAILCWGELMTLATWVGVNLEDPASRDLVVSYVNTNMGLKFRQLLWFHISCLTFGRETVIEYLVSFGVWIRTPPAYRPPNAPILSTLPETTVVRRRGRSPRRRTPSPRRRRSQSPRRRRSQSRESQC

Compound `O=C(c1cc2ccc(Br)cc2[nH]1)N1CCc2n[nH]c(-c3cscn3)c2C1` [Example 15, 6-bromo-2-[3-(1,3-thiazol-4-yl)-2H,4H,5H,6H,7H-pyrazolo[4,3-c]pyridine-5-carbonyl]-1H-indole] has an IC50 (HBV core protein) of 5 to 10 µM, an EC50 (HBV) of less than 1 µM and a CC50 at 6 days [1] greater than 10 µM.
`O=C(c1cc2ccc(Cl)cc2[nH]1)N1CCc2n[nH]c(-c3cscn3)c2C1` [Example 16, 6-chloro-2-[3-(1,3-thiazol-4-yl)-2H,4H,5H,6H,7H-pyrazolo[4,3-c]pyridine-5-carbonyl]-1H-indole] gave an IC50 (HBV core protein) of less than 5 µM, an EC50 (HBV) of less than 1 µM and a CC50 at 6 days [1] greater than 10 µM.
In the case of `O=C(c1cc2c(F)ccc(F)c2[nH]1)N1CCc2n[nH]c(-c3cscn3)c2C1` [Example 17, 4,7-difluoro-2-[3-(1,3-thiazol-4-yl)-2H,4H,5H,6H,7H-pyrazolo[4,3-c]pyridine-5-carbonyl]-1H-indole], the IC50 (HBV core protein) is reported as less than 5 µM, the EC50 (HBV) is reported as less than 1 µM and the CC50 at 6 days [1] is reported as greater than 10 µM.
`CCc1cccc2[nH]c(C(=O)N3CCc4n[nH]c(-c5cscn5)c4C3)cc12` [Example 18, 4-ethyl-2-[3-(1,3-thiazol-4-yl)-2H,4H,5H,6H,7H-pyrazolo[4,3-c]pyridine-5-carbonyl]-1H-indole] showed an IC50 (HBV core protein) of less than 5 µM, an EC50 (HBV) of less than 1 µM and a CC50 at 6 days [1] of 7.3 µM.
Compound `O=C(c1cc2c(Cl)cccc2[nH]1)N1CCc2n[nH]c(-c3cscn3)c2C1` [Example 19, 4-chloro-2-[3-(1,3-thiazol-4-yl)-2H,4H,5H,6H,7H-pyrazolo[4,3-c]pyridine-5-carbonyl]-1H-indole] has an IC50 (HBV core protein) of less than 5 µM, an EC50 (HBV) of less than 1 µM and a CC50 at 6 days [1] greater than 10 µM.
`O=C(c1cc2c(F)cc(F)cc2[nH]1)N1CCc2n[nH]c(-c3cscn3)c2C1` [Example 20, 4,6-difluoro-2-[3-(1,3-thiazol-4-yl)-2H,4H,5H,6H,7H-pyrazolo[4,3-c]pyridine-5-carbonyl]-1H-indole] showed an IC50 (HBV core protein) of less than 5 µM, an EC50 (HBV) of less than 1 µM and a CC50 at 6 days [1] greater than 10 µM.
`O=C(c1cc2c(C(F)(F)F)cccc2[nH]1)N1CCc2n[nH]c(-c3cscn3)c2C1` [Example 21, 2-[3-(1,3-thiazol-4-yl)-2H,4H,5H,6H,7H-pyrazolo[4,3-c]pyridine-5-carbonyl]-4-(trifluoromethyl)-1H-indole] gave an IC50 (HBV core protein) of less than 100 µM, an EC50 (HBV) of less than 1 µM and a CC50 at 6 days [1] greater than 10 µM.
`O=C(c1cc2c(F)c(F)ccc2[nH]1)N1CCc2n[nH]c(-c3cscn3)c2C1` [Example 22, 4,5-difluoro-2-[3-(1,3-thiazol-4-yl)-2H,4H,5H,6H,7H-pyrazolo[4,3-c]pyridine-5-carbonyl]-1H-indole] gave an IC50 (HBV core protein) of less than 5 µM, an EC50 (HBV) of less than 1 µM and a CC50 at 6 days [1] greater than 10 µM.
With `Cc1cccc2[nH]c(C(=O)N3CCc4n[nH]c(-c5cscn5)c4C3)cc12` [Example 23, 4-methyl-2-[3-(1,3-thiazol-4-yl)-2H,4H,5H,6H,7H-pyrazolo[4,3-c]pyridine-5-carbonyl]-1H-indole] the IC50 (HBV core protein) was less than 5 µM, the EC50 (HBV) was less than 1 µM and the CC50 at 6 days [1] was greater than 10 µM.
Compound `Cc1cc(F)cc2[nH]c(C(=O)N3CCc4n[nH]c(-c5cscn5)c4C3)cc12` [Example 26, 6-fluoro-4-methyl-2-[3-(1,3-thiazol-4-yl)-2H,4H,5H,6H,7H-pyrazolo[4,3-c]pyridine-5-carbonyl]-1H-indole] has an IC50 (HBV core protein) of less than 5 µM, an EC50 (HBV) of less than 1 µM and a CC50 at 6 days [1] greater than 10 µM.
For `CN(CCO)C(=O)c1n[nH]c2c1CN(C(=O)c1cc3c(C(C)(F)F)cc(F)cc3[nH]1)CC2` [Example 27, 5-[4-(1,1-difluoroethyl)-6-fluoro-1H-indole-2-carbonyl]-N-(2-hydroxyethyl)-N-methyl-1H,4H,5H,6H,7H-pyrazolo[4,3-c]pyridine-3-carboxamide], the IC50 (HBV core protein) was less than 5 µM, the EC50 (HBV) was less than 1 µM and the CC50 at 6 days [1] was greater than 10 µM.
`CN(CCO)C(=O)c1n[nH]c2c1CN(C(=O)c1cc3c(F)cc(F)cc3[nH]1)CC2` [Example 28, 5-(4,6-difluoro-1H-indole-2-carbonyl)-N-(2-hydroxyethyl)-N-methyl-1H,4H,5H,6H,7H-pyrazolo[4,3-c]pyridine-3-carboxamide] gave an IC50 (HBV core protein) of less than 5 µM, an EC50 (HBV) of less than 1 µM and a CC50 at 6 days [1] greater than 10 µM.
`CN(CCO)C(=O)c1n[nH]c2c1CN(C(=O)c1cc3ccc(Br)cc3[nH]1)CC2` [Example 29, 5-(6-bromo-1H-indole-2-carbonyl)-N-(2-hydroxyethyl)-N-methyl-1H,4H,5H,6H,7H-pyrazolo[4,3-c]pyridine-3-carboxamide] gave an IC50 (HBV core protein) of less than 5 µM, an EC50 (HBV) of less than 1 µM and a CC50 at 6 days [1] greater than 10 µM.
`CN(CCO)C(=O)c1n[nH]c2c1CN(C(=O)c1cc3c(Br)cccc3[nH]1)CC2` [Example 30, 5-(4-bromo-1H-indole-2-carbonyl)-N-(2-hydroxyethyl)-N-methyl-1H,4H,5H,6H,7H-pyrazolo[4,3-c]pyridine-3-carboxamide] showed an IC50 (HBV core protein) of less than 5 µM, an EC50 (HBV) of less than 1 µM and a CC50 at 6 days [1] greater than 10 µM.
`CNC(C)(C)COC(=O)c1n[nH]c2c1CN(C(=O)c1cc3ccccc3[nH]1)CC2` [Example 31, 2-methyl-2-(methylamino)propyl 5-(1H-indole-2-carbonyl)-1H,4H,5H,6H,7H-pyrazolo[4,3-c]pyridine-3-carboxylate] gave an IC50 (HBV core protein) of 5 to 10 µM, an EC50 (HBV) of 1 to 25 µM and a CC50 at 6 days [1] greater than 100 µM.
Work on `CNC1(COC(=O)c2n[nH]c3c2CN(C(=O)c2cc4ccccc4[nH]2)CC3)CC1` [Example 32, [1-(methylamino)cyclopropyl]methyl 5-(1H-indole-2-carbonyl)-1H,4H,5H,6H,7H-pyrazolo[4,3-c]pyridine-3-carboxylate] yielded an IC50 (HBV core protein) of less than 5 µM, an EC50 (HBV) of less than 1 µM and a CC50 at 6 days [1] greater than 100 µM.
`CN(C(=O)c1n[nH]c2c1CN(C(=O)c1cc3ccccc3[nH]1)CC2)C1(CO)CC1` [Example 33, N-[1-(hydroxymethyl)cyclopropyl]-5-(1H-indole-2-carbonyl)-N-methyl-1H,4H,5H,6H,7H-pyrazolo[4,3-c]pyridine-3-carboxamide] showed an IC50 (HBV core protein) of less than 5 µM, an EC50 (HBV) of less than 1 µM and a CC50 at 6 days [1] greater than 10 µM.
Compound `CC1(O)CN(C(=O)c2n[nH]c3c2CN(C(=O)c2cc4ccccc4[nH]2)CC3)C1` [Example 34, 1-[5-(1H-indole-2-carbonyl)-1H,4H,5H,6H,7H-pyrazolo[4,3-c]pyridine-3-carbonyl]-3-methylazetidin-3-ol] has an IC50 (HBV core protein) of less than 100 µM, an EC50 (HBV) of less than 1 µM and a CC50 at 6 days [1] greater than 15 µM.
`CC1c2c(-c3cscn3)n[nH]c2CCN1C(=O)c1cc2ccccc2[nH]1` (stereo not drawn) [Example 36, 2-[4-methyl-3-(1,3-thiazol-4-yl)-1H,4H,5H,6H,7H-pyrazolo[4,3-c]pyridine-5-carbonyl]-1H-indole] gave an IC50 (HBV core protein) of 5 to 10 µM, an EC50 (HBV) of less than 1 µM and a CC50 at 6 days [1] of 88 µM.
`CC1Cc2[nH]nc(-c3cscn3)c2CN1C(=O)c1cc2c(Cl)cc(F)cc2[nH]1` (stereo not drawn) [Example 37, 4-chloro-6-fluoro-2-[6-methyl-3-(1,3-thiazol-4-yl)-1H,4H,5H,6H,7H-pyrazolo[4,3-c]pyridine-5-carbonyl]-1H-indole] showed an IC50 (HBV core protein) of 5 to 10 µM, an EC50 (HBV) of less than 1 µM and a CC50 at 6 days [1] greater than 32 µM.
Compound `CC1Cc2[nH]nc(-c3cscn3)c2CN1C(=O)c1cc2ccccc2[nH]1` (stereo not drawn) [Example 38, 2-[6-methyl-3-(1,3-thiazol-4-yl)-1H,4H,5H,6H,7H-pyrazolo[4,3-c]pyridine-5-carbonyl]-1H-indole] has an IC50 (HBV core protein) of less than 5 µM, an EC50 (HBV) of less than 1 µM and a CC50 at 6 days [1] of 100 µM.
